In patent publication US20140018347A1, “BENZOXAZEPINES AS INHIBITORS OF mTOR AND METHODS OF THEIR USE AND MANUFACTURE” (Exelixis, Inc., priority 2010, published 2014):

Key:
PI3Kalpha = PI3Kalpha (Homo sapiens, UniProt P42336); test: PI3K Biochemical Assays (PI3K-alpha assay); conditions: ATP consumption, luciferase-luciferin; 1 μM ATP, 10 μM PIP2
Method: PI3Kn activity was measured as the percent of ATP consumed following the kinase reaction using luciferase-luciferin-coupled chemiluminescence. Reactions were conducted in 384-well white, medium binding microtiter plates (Greiner). Kinase reactions were initiated by combining test compounds, ATP, substrate (PIP2), and kinase in a 20 μL volume in a buffer solution. The standard PI3Kalpha assay buffer was composed 50 mM Tris, pH 7.5, 1 mM EGTA, 10 mM MgCl2, 1 mM DTT and 0.03% CHAPS. The standard assay concentrations for enzyme, ATP, and substrate were 3 nM, 1 μM, and 10 μM, respectively. The reaction mixture was incubated at ambient temperature for approximately 2 h. Following the kinase reaction, a 10 μL aliquot of luciferase-luciferin mix (Promega Kinase-Glo) was added and the chemiluminescence signal measured using a Victor2 or EnVision (Perkin Elmer). Total ATP consumption was limited to 40-60% and IC50 values of control compounds correlate well with literature references. Substituting PI3Kα with PI3Krβ, PI3Kγ, or PI3Kδ, the inhibitory activity of the compounds for the other isoforms of PI3K were measured. For the PI3Kβ and PI3Kδ assays, enzyme concentrations were 10 nM and 4 nM, respectively. For the PI3Kγ assay, enzyme concentration was 40 nM, the incubation time was 1 h, and the concentration of MgCl2 in the assay buffer was 5 mM.

mTORC1 = mTORC1 (Homo sapiens, UniProt P42345); test: mTOR/GbL/Raptor (mTORC1) ELISA Assay; type: biochemical; conditions: phosphorylation of 4E-BP1; 0.2 nM mTORC1, 10 μM ATP
Method: The measurement of mTORC1 enzyme activity was performed in an ELISA assay format following the phosphorylation of 4E-BP1 protein. All experiments were performed in the 384-well format. Generally, 0.5 μL DMSO containing varying concentrations of the test compound was mixed with 15 μL enzyme solution. Kinase reactions were initiated with the addition of 15 μL of substrates-containing solution. The assay conditions were as follows; 0.2 nM mTORC1, 10 μM ATP and 50 nM NHis-tagged 4E-BP1 in 20 mM Hepes, pH 7.2, 1 mM DTT, 50 mM NaCl, 10 mM MnCl2, 0.02 mg/mL BSA, 0.01% CHAPS, 50 mM β-glycerophosphate. Following an incubation of 120 minutes at ambient temperature, 20 μL of the reaction volume was transferred to a Ni-Chelate-coated 384-well plate. The binding step of the 4E-BP1 protein proceeded for 60 minutes, followed by washing 4 times each with 50 μL of Tris-buffered saline solution (TBS). Anti-phospho-4E-BP1 rabbit-IgG (20 μL, 1:5000) in 5% BSA-TBST (0.2% Tween-20 in TBS) was added and further incubated for 60 minutes. Incubation with a secondary HRP-tagged anti-IgG was similarly performed after washing off the primary antibody (4 washes of 50 μL). Following the final wash step with TBST, 20 μL of SuperSignal ELISA Femto (Pierce Biotechnology) was added and the luminescence measured using an EnVision plate reader.

Chain of PI3Kalpha (P42336 whole entry): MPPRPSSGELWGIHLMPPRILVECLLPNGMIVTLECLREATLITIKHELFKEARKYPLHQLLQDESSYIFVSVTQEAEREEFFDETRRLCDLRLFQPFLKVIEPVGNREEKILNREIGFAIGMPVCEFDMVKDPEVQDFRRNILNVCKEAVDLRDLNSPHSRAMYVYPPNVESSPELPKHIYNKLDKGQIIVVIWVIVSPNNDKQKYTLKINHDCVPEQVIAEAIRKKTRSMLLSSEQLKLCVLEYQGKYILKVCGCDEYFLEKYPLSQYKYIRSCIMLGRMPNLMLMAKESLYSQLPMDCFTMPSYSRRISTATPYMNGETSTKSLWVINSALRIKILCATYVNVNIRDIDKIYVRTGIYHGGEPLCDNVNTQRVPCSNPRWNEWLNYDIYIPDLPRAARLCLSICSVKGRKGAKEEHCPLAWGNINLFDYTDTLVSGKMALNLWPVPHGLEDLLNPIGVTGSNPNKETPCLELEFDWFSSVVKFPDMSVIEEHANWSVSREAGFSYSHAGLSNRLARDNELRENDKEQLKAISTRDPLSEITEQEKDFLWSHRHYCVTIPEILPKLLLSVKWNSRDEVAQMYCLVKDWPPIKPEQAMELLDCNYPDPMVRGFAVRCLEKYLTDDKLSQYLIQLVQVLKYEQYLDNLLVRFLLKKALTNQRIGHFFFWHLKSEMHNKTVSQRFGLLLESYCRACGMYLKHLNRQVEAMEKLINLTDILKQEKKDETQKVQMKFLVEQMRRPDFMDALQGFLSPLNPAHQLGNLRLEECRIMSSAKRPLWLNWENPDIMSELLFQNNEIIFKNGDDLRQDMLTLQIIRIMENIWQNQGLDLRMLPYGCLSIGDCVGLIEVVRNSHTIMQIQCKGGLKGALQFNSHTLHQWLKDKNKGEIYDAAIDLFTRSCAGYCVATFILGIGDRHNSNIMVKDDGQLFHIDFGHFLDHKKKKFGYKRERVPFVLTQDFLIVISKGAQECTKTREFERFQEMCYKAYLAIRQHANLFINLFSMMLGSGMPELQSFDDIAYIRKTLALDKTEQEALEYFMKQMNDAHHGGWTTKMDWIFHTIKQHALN
Chain of PI3Kalpha (P27986 whole entry partner): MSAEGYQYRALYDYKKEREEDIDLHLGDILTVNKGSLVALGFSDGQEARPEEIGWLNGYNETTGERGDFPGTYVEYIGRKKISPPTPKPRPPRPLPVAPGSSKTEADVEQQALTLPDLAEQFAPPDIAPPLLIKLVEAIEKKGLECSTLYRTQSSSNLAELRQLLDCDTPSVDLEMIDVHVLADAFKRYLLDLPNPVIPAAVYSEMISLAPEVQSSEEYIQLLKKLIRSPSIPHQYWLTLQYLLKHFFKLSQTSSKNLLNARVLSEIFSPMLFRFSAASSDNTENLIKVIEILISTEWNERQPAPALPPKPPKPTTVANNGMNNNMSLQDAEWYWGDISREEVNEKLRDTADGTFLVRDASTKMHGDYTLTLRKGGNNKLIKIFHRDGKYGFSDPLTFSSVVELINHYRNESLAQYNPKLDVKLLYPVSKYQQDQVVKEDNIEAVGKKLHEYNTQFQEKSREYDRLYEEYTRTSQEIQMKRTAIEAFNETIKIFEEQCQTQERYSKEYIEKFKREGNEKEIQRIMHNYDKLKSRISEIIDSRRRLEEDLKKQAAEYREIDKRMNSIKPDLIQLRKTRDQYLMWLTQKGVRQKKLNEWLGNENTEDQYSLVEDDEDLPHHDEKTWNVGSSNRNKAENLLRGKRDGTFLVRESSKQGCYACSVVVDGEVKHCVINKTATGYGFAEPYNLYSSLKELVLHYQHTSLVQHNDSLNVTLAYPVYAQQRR

| IC50 (PI3Kalpha) | IC50 (mTORC1) | SMILES |
| --- | --- | --- |
| ≤ 100 nM | ≤ 100 nM | C=CCc1c(Cl)nc(N)nc1N1CCOc2ccc(-c3cnc4sc(N)nc4c3)cc2C1 [Compound 76, 6-[4-(2-amino-6-chloro-5-prop-2-en-1-ylpyrimidin-4-yl)-2,3,4,5-tetrahydro-1,4-benzoxazepin-7-yl][1,3]thiazolo[5,4-b]pyridin-2-amine] |
| ≤ 100 nM | ≤ 100 nM | COCCc1c(C)nc(N)nc1N1CCOc2ccc(-c3cnc4sc(N)nc4c3)cc2C1 [Compound 12, 6-(4-{2-amino-6-methyl-5-[2-(methyloxy)ethyl]pyrimidin-4-yl)-2,3,4,5-tetrahydro-1,4-benzoxazepin-7-yl)[1,3]thiazolo[5,4-b]pyridin-2-amine] |
| ≤ 100 nM | ≤ 100 nM | C=C(C)c1c(C)nc(N)nc1N1CCOc2ccc(-c3cnc4sc(N)nc4c3)cc2C1 [Compound 30, 6-{4-[2-amino-6-methyl-5-(1-methylethenyl)pyrimidin-4-yl]-2,3,4,5-tetrahydro-1,4-benzoxazepin-7-yl}[1,3]thiazolo[5,4-b]pyridin-2-amine] |
| ≤ 100 nM | ≤ 100 nM | CC(C)c1c(Cl)nc(N)nc1N1CCOc2ccc(-c3cnc4sc(N)nc4c3)cc2C1 [Compound 8, 6-{4-[2-amino-6-chloro-5-(1-methylethyl)pyrimidin-4-yl]-2,3,4,5-tetrahydro-1,4-benzoxazepin-7-yl}[1,3]thiazolo[5,4-b]pyridin-2-amine] |
| ≤ 100 nM | ≤ 100 nM | CCCc1c(C)nc(CN(C)C)nc1N1CCOc2ccc(-c3cnc4sc(N)nc4c3)cc2C1 [Compound 69, 6-(4-{2-[(dimethylamino)methyl]-6-methyl-5-propylpyrimidin-4-yl}-1,3,4,5-tetrahydro-1,4-benzoxazepin-7-yl)[1,3]thiazolo[5,4-b]pyridin-2-amine] |
| ≤ 100 nM | ≤ 100 nM | CC(C)c1c(Br)nc(N)nc1N1CCOc2ccc(-c3cnc4sc(N)nc4c3)cc2C1 [Compound 19, 6-{4-[2-amino-6-bromo-5-(1-methylethyl)pyrimidin-4-yl]-2,3,4,5-tetrahydro-1,4-benzoxazepin-7-yl}[1,3]thiazolo[5,4-b]pyridin-2-amine] |
| ≤ 100 nM | ≤ 100 nM | CCCc1c(C)nc(N)nc1N1CCOc2ccc(-c3cnc4sc(N)nc4c3)cc2C1 [Compound 32] |
| ≤ 100 nM | 100 to 500 nM | Cc1c(Cl)nc(N)nc1N1CCOc2ccc(-c3cnc4sc(N)nc4c3)cc2C1 [Compound 31, 6-[4-(2-amino-6-chloro-5-methylpyrimidin-4-yl)-2,3,4,5-tetrahydro-1,4-benzoxazepin-7-yl][1,3]thiazolo[5,4-b]pyridin-2-amine] |

More lines, now with the values behind:

| SMILES | IC50 (PI3Kalpha) | IC50 (mTORC1) |
| --- | --- | --- |
| Cc1nc(CN(C)C)nc(N2CCOc3ccc(-c4cnc5sc(N)nc5c4)cc3C2)c1CC(C)C [Compound 36, 6-(4-{2-[(dimethylamino)methyl]-6-methyl-5-(2-methylpropyl)pyrimidin-4-yl}-2,3,4,5-tetrahydro-1,4-benzoxazepin-7-yl)[1,3]thiazolo[5,4-b]pyridin-2-amine] | 100 to 500 nM | ≤ 100 nM |
| CC[C@H]1CCc2c(nc(N)nc2N2CCOc3ccc(-c4cnc5sc(N)nc5c4)cc3C2)C1 [Compound 56, (7S)-4-[7-(2-amino[1,3]thiazolo[5,4-b]pyridin-6-yl)-2,3-dihydro-1,4-benzoxazepin-4(5H)-yl]-7-ethyl-5,6,7,8-tetrahydroquinazolin-2-amine] | ≤ 100 nM | ≤ 100 nM |
| N#Cc1cnc(N2CCOc3ccc(-c4cnc5sc(N)nc5c4)cc3C2)nc1N [Compound 49, 4-amino-2-[7-(2-amino[1,3]thiazolo[5,4-b]pyridin-6-yl)-2,3-dihydro-1,4-benzoxazepin-4(5H)-yl]pyrimidine-5-carbonitrile] | ≤ 100 nM | 100 to 500 nM |
| Cc1nc(CN(C)C)nc(N2CCOc3ccc(-c4cnc5sc(N)nc5c4)cc3C2)c1C [Compound 2, 6-(4-{2-[(dimethylamino)methyl]-5,6-dimethylpyrimidin-4-yl}-2,3,4,5-tetrahydro-1,4-benzoxazepin-7-yl)[1,3]thiazolo[5,4-b]pyridin-2-amine] | ≤ 100 nM | 500 to 2500 nM |
| C/C=C/c1c(Cl)nc(N)nc1N1CCOc2ccc(-c3cnc4sc(N)nc4c3)cc2C1 [Compound 75, 6-(4-{2-amino-6-chloro-5-[(1E)-prop-1-en-1-yl]pyrimidin-4-yl}-2,3,4,5-tetrahydro-1,4-benzoxazepin-7-yl)[1,3]thiazolo[5,4-b]pyridin-2-amine] | ≤ 100 nM | ≤ 100 nM |
| CC1=Cc2nc(N)nc(N3CCOc4ccc(-c5cnc6sc(N)nc6c5)cc4C3)c2CC1(C)C [Compound 98, 4-[7-(2-amino[1,3]thiazolo[5,4-b]pyridin-6-yl)-2,3-dihydro-1,4-benzoxazepin-4(5H)-yl]-6,6,7-trimethyl-5,6-dihydroquinazolin-2-amine] | ≤ 100 nM | ≤ 100 nM |
| Cc1cnc(N)nc1N1CCOc2ccc(-c3cnc4sc(N)nc4c3)cc2C1 [Compound 35, 6-[4-(2-amino-5-methylpyrimidin-4-yl)-2,3,4,5-tetrahydro-1,4-benzoxazepin-7-yl][1,3]thiazolo[5,4-b]pyridin-2-amine] | ≤ 100 nM | 100 to 500 nM |
| Nc1ncc(C(F)(F)F)c(N2CCOc3ccc(-c4cnc5sc(N)nc5c4)cc3C2)n1 [Compound 78, 6-{4-[2-amino-5-(trifluoromethyl)pyrimidin-4-yl]-2,3,4,5-tetrahydro-1,4-benzoxazepin-7-yl}[1,3]thiazolo[5,4-b]pyridin-2-amine] | ≤ 100 nM | ≤ 100 nM |
| CC1CC(C)(C)Cc2c1nc(N)nc2N1CCOc2ccc(-c3cnc4sc(N)nc4c3)cc2C1 (stereo not drawn) [Compound 57, 4-[7-(2-amino[1,3]thiazolo[5,4-b]pyridin-6-yl)-2,3-dihydro-1,4-benzoxazepin-4(5H)-yl]-6,6,8-trimethyl-5,6,7,8-tetrahydroquinazolin-2-amine] | ≤ 100 nM | ≤ 100 nM |
| Cc1cc(N2CCOc3ccc(-c4cnc5sc(N)nc5c4)cc3C2)nc(N)n1 [Compound 46, 6-[4-(2-amino-6-methylpyrimidin-4-yl)-2,3,4,5-tetrahydro-1,4-benzoxazepin-7-yl][1,3]thiazolo[5,4-b]pyridin-2-amine] | 100 to 500 nM | 500 to 2500 nM |
| CCc1nc(N)nc(N2CCOc3ccc(-c4cnc5sc(N)nc5c4)cc3C2)c1C(C)C [Compound 29, 6-{4-[2-amino-6-ethyl-5-(1-methylethyl)pyrimidin-4-yl]-2,3,4,5-tetrahydro-1,4-benzoxazepin-7-yl}[1,3]thiazolo[5,4-b]pyridin-2-amine] | ≤ 100 nM | ≤ 100 nM |
| Cc1nc(CN(C)C)nc(N2CCOc3ccc(-c4cnc5sc(N)nc5c4)cc3C2)c1CCCF [Compound 38, 6-(4-{2-[(dimethylamino)methyl]-5-(3-fluoropropyl)-6-methylpyrimidin-4-yl}-2,3,4,5-telrahydro-1,4-benzoxazepin-7-yl)[1,3]thiazolo[5,4-b]pyridin-2-amine] | ≤ 100 nM | ≤ 100 nM |
| CC(=O)NCc1nc(C)c(C(C)C)c(N2CCOc3ccc(-c4cnc5sc(N)nc5c4)cc3C2)n1 [Compound 22, N-({4-[7-(2-amino[1,3]thiazolo[5,4-b]pyridin-6-yl)-2,3-dihydro-1,4-benzoxazepin-4(5H)-yl]-6-methyl-5-(1-methylethyl)pyrimidin-2-yl)methyl)acetamide] | ≤ 100 nM | ≤ 100 nM |
